Experiments:
Nod2-Fpk3 = assay: Enforced oligomerization of Fpk3-Nod2 chimeric proteins, NF-κB reporter in HEK293T cells; assay type: cell-based, human
Description: HEK293T cells were transfected with of control plasmid (−) or plasmids producing the indicated Myc-tagged Fpk3Nod2 proteins. Extracts from equal number of cells was immunoprecipitated and immunoblotted with rabbit anti-Myc antibody. […] 2×10^5 HEK293T cells were transfected with 1 ng of the indicated plasmids in the presence of pBVIx-luc and pEF-BOS-β-gal. 8 hr post-transfection, cells were treated with 500 nM AP1510 (black bars) or left untreated (white bars). 24 hr post-transfection, the κB-dependent transcription was determined as described below. Values represent mean ±SD of triplicate cultures.
In the case of Nod1, its oligomerization appears to promote proximity of RICK and NF-κB activation. To test a similar role for Nod2, plasmids were constructed to express chimeric proteins in which wt or Nod2 mutants were fused to three tandem repeated dimerization domains of Fpk (Fpk3), which can be oligomerized by the cell-permeable ligand AP1510 (MacCorkle et al., Proc. Nat. Acad. Sci. U. S. A. 95: 3655-3660 [1998]). […] Because wt Nod2 alone induces NF-KB activation, we expressed suboptimal amounts of the chimeric Fpk3-Nod2 constructs into HEK293T cells. […] Similarly, NF-κB activation induced by a Nod2 P-loop mutant lacking the LRRs (K305RALRR), which have reduced ability to induce NF-κB activation, was enhanced by enforced oligomerization (FIG. 7C). […]

NF-κB [1] = assay: NF-κB binding activity by EMSA in nuclear extracts of PBMNC; assay type: cell-based, human; details: PBMNC nuclear extracts, EMSA
Description: FIGS. 20C and D show PBMNC analyzed for expression of IL-1β (C) and A1 (D) transcripts by quantitative RT-PCR.
Genotyping was performed using a ddNTP primer extension system. Nuclear extracts from LPS-stimulated cells were pre-incubated with antibody specific for p50 subunit of NF-κB to monitor the size of the NF-κB-DNA complex. cDNA was amplified with specific primers for human IL-1β, glyceraldehyde-3-phosphate-dehydrogenase (GAPDH) as described (5) and A1 (5′-[…]-3′ (SEQ ID NO: 53) and 5′-[…]-3′ (SEQ ID NO:54)). The levels of IL-1β and A1 transcripts normalized to that of GAPDH were expressed relative to those in untreated cells that were considered as baseline. Specificity of the desired PCR products was determined by melting curve analysis. Histograms represent the mean ±S.D. of triplicate analyses.
The NOD2 variants associated with Crohn's disease, R702W, G908R and L1007fsinsC, occur on the same haplotype background, which includes the common P268S polymorphism (Hugot et al., Nature 411:599 [2001]; Ogura et al., Nature 411:603 [2001]). To compare the ability of normal and mutant NOD2 proteins to induce NF-κB activity in response to MDP, the NOD2 proteins were expressed in cells and evaluated in a functional assay. […] The role of NOD2 in the recognition of MDP by primary cells from normal and Crohn's disease patients was next determined. A panel of healthy and Crohn's disease individuals were genotyped for the disease-associated NOD2 alleles and two individuals (one without clinical evidence of disease and one individual with Crohn's disease) who were homozygous for the loss-of-function L1007fsinsC mutation were identified (FIG. 20A). The identification of apparently healthy individuals homozygous for L1007fsinsC is expected in that the penetrance of the L1007fsinsC mutation is not complete (Hugot et al., supra; Ogura et al., supra; Hampe et al., Lancet 357:1925 [2001]; Ahmad et al., Gastroenterology 122:854 [2002]). Peripheral blood mononuclear cells (PBMNC) that are known to express NOD2 were isolated, incubated with MDP or LPS and NF-κB activation was assessed in nuclear extracts by an electrophoretic mobility shift assay (EMSA).

Nod2 = biological target: T1, Nod2 (Homo sapiens, UniProt Q9HC29, R703H); assay: NF-κB reporter assay in HEK293T/HEK293 cells expressing Nod2; assay type: cell-based; details: 100 ng/ml (FIG. 18C)
T1 construct: ligated to generate an unique cDNA containing the entire open reading frame of Nod2; expressed in transfected cells; host or cells: HEK293T
T1 sequence (Q9HC29 whole entry R703H): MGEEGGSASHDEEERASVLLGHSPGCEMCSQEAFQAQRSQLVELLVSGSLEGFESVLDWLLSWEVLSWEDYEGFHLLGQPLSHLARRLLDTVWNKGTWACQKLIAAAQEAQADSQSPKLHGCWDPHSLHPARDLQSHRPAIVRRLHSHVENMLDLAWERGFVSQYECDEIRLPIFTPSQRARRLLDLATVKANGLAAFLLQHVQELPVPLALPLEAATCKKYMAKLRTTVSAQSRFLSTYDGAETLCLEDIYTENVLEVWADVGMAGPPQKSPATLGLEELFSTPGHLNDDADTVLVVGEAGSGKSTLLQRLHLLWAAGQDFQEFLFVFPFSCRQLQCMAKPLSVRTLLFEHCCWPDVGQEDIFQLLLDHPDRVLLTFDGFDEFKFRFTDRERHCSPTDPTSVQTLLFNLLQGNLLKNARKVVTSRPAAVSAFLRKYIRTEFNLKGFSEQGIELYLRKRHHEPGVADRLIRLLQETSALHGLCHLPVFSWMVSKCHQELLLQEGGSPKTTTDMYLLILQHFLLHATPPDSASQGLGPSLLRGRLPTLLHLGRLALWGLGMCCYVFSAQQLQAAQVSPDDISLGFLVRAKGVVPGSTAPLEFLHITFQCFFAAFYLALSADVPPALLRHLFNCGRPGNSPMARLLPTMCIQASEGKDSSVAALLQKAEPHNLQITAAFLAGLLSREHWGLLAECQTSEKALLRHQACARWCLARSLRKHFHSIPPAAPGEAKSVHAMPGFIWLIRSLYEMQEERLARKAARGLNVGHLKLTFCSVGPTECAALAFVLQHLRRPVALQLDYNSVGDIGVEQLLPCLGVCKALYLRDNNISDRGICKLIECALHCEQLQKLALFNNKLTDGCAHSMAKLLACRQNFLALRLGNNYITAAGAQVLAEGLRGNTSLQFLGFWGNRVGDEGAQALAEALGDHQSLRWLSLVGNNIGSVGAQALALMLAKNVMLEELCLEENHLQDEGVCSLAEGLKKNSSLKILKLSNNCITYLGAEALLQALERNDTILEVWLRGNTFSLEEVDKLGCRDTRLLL

NF-κB [2] = assay: NF-κB luciferase reporter assay in HEK293T cells transfected with control plasmid; assay type: cell-based, human
Description: Induction of NF-κB activation was determined in triplicate cultures of HEK293T cells transfected with 30 ng of Nod2 plasmid (open bars) or stimulated with 10 ng/ml of TNFα for 4 h (closed bars) and 70 ng of I-κBα S32A/S36A, IKKα K44A, IKKβ K44A, RICK (406-540) or RIP (558-671) expression plasmid in the presence of pBVIx-Luc and pEF-BOS-β-gal. Results are presented as a percent of values obtained with Nod2 and control plasmid. In the experiment shown, Nod2 and TNFα induced 58±8-fold and 14±1-fold activation of NF-κB, respectively. Values represent mean ±SD of triplicate cultures. […] Induction of NF-κB activation was determined from triplicate cultures of I×10^5 HEK293T cells co-transfected with the indicated plasmids and pBVIx-Luc in the presence of control plasmid pEF-BOS-β-gal. […]
8 hr post-transfection, cells were treated with 10 μg/ml of each pathogen product, lipoteichoic acid (LTA) or peptidoglycan (PGN) from Staphylococcus aureus, lipopolysaccharide (LPS) from Escherichia coli 055:B5, mannan from Candida albicans 20A, synthetic soluble bacterial lipoprotein (SBLP) or left untreated (Control). 24 hr post-transfection, κB-dependent transcription was determined by luciferase activity relative and values normalized to β-galactosidase in triplicate cultures. […] Twenty-four hr post-transfection, κB-dependent transcription was determined as described above. […]

TLR2 = biological target: T2, TLR2 (Homo sapiens, UniProt O60603); assay: NF-κB reporter assay in HEK293 cells stably transfected with TLR2; assay type: cell-based; details: MDP 100 ng/ml, sBLP 1000 ng/ml
T2 construct: expressed in transfected cells
T2 sequence (O60603 21-784, species assumed): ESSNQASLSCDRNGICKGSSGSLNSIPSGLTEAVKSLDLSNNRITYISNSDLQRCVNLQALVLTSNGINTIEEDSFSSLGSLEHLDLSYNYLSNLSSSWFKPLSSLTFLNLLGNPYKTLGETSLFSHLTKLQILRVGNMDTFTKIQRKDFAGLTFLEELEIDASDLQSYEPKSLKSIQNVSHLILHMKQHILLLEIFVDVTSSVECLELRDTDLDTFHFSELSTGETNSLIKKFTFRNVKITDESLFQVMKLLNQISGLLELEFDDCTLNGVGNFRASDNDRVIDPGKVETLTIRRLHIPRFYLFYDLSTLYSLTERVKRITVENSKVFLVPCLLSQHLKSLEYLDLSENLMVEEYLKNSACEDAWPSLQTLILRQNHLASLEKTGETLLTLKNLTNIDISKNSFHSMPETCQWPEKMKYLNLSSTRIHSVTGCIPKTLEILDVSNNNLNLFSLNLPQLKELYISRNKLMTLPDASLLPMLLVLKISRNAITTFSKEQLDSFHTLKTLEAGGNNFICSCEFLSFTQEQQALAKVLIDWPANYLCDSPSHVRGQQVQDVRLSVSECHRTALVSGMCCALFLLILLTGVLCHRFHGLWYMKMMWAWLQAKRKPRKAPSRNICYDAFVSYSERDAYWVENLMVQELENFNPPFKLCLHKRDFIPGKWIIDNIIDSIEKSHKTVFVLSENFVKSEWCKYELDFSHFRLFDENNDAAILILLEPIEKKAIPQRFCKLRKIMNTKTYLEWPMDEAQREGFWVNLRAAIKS
Description: Molecules with two copies (2mer) or four copies (4mer) of GlcNAc-MurNAc with attached L-Ala-D-isoGln and their counterparts lacking dipeptide (2mer-aa, 4mer-aa) were synthesized as described (Inamura et al., Tetrahedron Lett. 42:7613 [2001]). Eight hours post-transfection, the indicated amount of each compound was added to the cells and the ability of each compound to activate NF-κB was determined as above. The ability of MDP (100 ng/ml) and sBLP (1000 ng/ml) to activate NF-κB was determined by transfection of 0.3 ng pcDNA3-Nod2 (Nod2) or control plasmid (−) into HEK293 cells or in HEK293 cells stably transfected with TLR2 (TLR2) or with control plasmid (−) and reporter pBxIV-luc and pEF-BOS-β-gal plasmids. Values represent the mean of normalized data ±S.D. of triplicate cultures.

NF-κB [3] = assay: NF-κB reporter assay in parental Rat1 fibroblasts; assay type: cell-based, rat
Description: Induction of NF-κB activation was determined in triplicate cultures of HEK293T cells transfected with 30 ng of Nod2 plasmid (open bars) or stimulated with 10 ng/ml of TNFα for 4 h (closed bars) and 70 ng of I-κBα S32A/S36A, IKKα K44A, IKKβ K44A, RICK (406-540) or RIP (558-671) expression plasmid in the presence of pBVIx-Luc and pEF-BOS-β-gal. Results are presented as a percent of values obtained with Nod2 and control plasmid. In the experiment shown, Nod2 and TNFα induced 58±8-fold and 14±1-fold activation of NF-κB, respectively. Values represent mean ±SD of triplicate cultures. […] Induction of NF-κB activation was determined from triplicate cultures of I×10^5 HEK293T cells co-transfected with the indicated plasmids and pBVIx-Luc in the presence of control plasmid pEF-BOS-β-gal. Values represent mean ±SD of triplicate cultures.
NF-κB activation assays. NF-κB activation assays were performed as described (Inohara et al., [1999] supra, Inohara et al., [2000], supra). […] 24 hr post-transfection, cell extracts were prepared and its relative luciferase activity was measured as described (Inohara et al., [1999] supra, Inohara et al., [2000], supra). […]

## CCC(C)(C)C(=O)C(=O)N1CCCC[C@H]1C(=O)O[C@H](CCc1ccc(OC)c(OC)c1)c1cccc(OCC(=O)NCCNC(=O)COc2cccc([C@@H](CCc3ccc(OC)c(OC)c3)OC(=O)[C@@H]3CCCCN3C(=O)C(=O)C(C)(C)CC)c2)c1 [AP1510]
Nod2-Fpk3; 500 nM AP1510, suboptimal amounts (1 ng) of plasmid
  NF-κB activation by Nod2-Fpk3 upon ligand: induced NF-KB activation in a ligand-dependent manner
Nod2-Fpk3; 500 nM AP1510 or untreated
  NF-κB activation by Nod2-Fpk3 construct lacking the LRRs: induced NF-κB activation in the absence and presence of AP1510

## Cc1ccc(S(=O)(=O)/C=C/C#N)cc1 [Bay11-7082]
NF-κB [1]
  inhibition of the DNA binding complex induced by MDP: inhibited

## CC(=O)NC1C(O)OC(CO)C(O)C1OC(C)C(=O)NC(C)C(=O)NC(CCC(=O)O)C(N)=O [MurNAc-L-Ala-L-isoGln]
Nod2
  ability to stimulate NOD2 (stereoselectivity): eliminated the ability of MDP to stimulate NOD2

## PaM3CysSerLyS4 [SBLP]
NF-κB [2]; HEK293T cells transfected with control plasmid, 10 μg/ml of each pathogen product
  induction of NF-κB reporter gene activity: No significant induction of reporter gene activity
TLR2
  TLR2-mediated cellular response (NF-κB): mediated a cellular response

## TNFα
NF-κB [2]; HEK293T cells stimulated with 10 ng/ml of TNFα for 4 h
  activation of NF-κB: 14±1 fold
NF-κB [3]
  NF-κB activity in parental Rat1 cells: induced NF-κB activity

Reference: patent US7375086B2, “Modulators of Nod2 signaling” (The Regents of the University of Michigan, priority 2000, dated 2008)
